{"source": "paper PMC9430770", "about": "(Microbiology Spectrum, 2022)", "key": {"C. albicans SC5314": {"tested_on": "C. albicans SC5314", "test": "Spot assay on solid YPD or YPG plates containing BE", "type": "cell-based, Candida albicans", "details": "48 h, 30°C", "description": "To test whether BE antifungal activity in C. albicans as well as in mammalian cells was carbon source dependent ([27]), we investigated the activity of BE in spot assays on both solid yeast extract-peptone-dextrose (YPD) (containing 20 mg/mL glucose) and solid YPG (containing 2% [vol/vol] glycerol) media.\nFIG 1 The antifungal activity of BE depends on the carbon source. The overnight-cultured C. albicans SC5314 cells were diluted to 1 × 10^7 cells/mL and used as the initial concentration for four times of 10-fold dilution. Subsequently, 5 μL of a 10-fold dilution series was spotted onto YPD or YPG solid plates containing the indicated different concentrations of BE. After 48 h of incubation at 30°C, pictures of the growth of cells were taken.\nThe spotting assay was performed as described previously ([50]). Briefly, after grown overnight, mid-log-phase cultures of strains required for experimental conditions were adjusted to 1 × 10^7 cells/mL using a hemacytometer, then were 1:10 serially diluted in sterile PBS, and were spotted onto indicated plates with an indicated concentration of BE. After 48 h of incubation at 30°C, pictures of the growth of cells were taken."}, "[1]": {"molecular_target": "T1, recombinant C. albicans Eno1 (Candida albicans, UniProt P30575)", "T1 construct": "the full-length ENO1 gene from C. albicans was cloned into the pET-21a (+) plasmid; made in house; host or cells: E. coli BL21(DE3)", "T1 sequence (P30575 whole entry)": "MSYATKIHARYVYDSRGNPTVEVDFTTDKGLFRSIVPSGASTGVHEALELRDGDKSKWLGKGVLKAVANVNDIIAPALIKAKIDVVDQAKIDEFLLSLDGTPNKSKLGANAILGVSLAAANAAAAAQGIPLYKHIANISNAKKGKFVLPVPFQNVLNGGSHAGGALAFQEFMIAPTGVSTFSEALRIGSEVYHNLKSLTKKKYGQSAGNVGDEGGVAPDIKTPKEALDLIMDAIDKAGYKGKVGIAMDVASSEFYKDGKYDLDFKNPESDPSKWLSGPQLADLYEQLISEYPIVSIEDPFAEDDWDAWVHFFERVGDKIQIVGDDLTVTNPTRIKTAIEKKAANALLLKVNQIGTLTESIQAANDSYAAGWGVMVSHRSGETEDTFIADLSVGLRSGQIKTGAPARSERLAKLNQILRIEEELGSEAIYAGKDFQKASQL", "test": "Target protein competition experiment between BE and label-BE (TAMRA-N3 reporter)", "type": "binding", "details": "preincubation with 100 μM BE, then 10 μM label-BE; E. coli lysates with recombinant CaEno1", "excerpt": "FIG 2 Eno1 is a target of BE. (A) Schematic diagram of synthesis label-BE. Label-BE is synthesized by intermediate TPD-10a with benzyl bromide structure and triacetylated BE. (B) The molecular structure of label-BE. Label-BE contains a trifluoromethylphenyl diazo heterocyclic propylene group (marked by a red dotted line) as a photoaffinity group to enhance the binding of label-BE to its target proteins and an alkyne group (marked by a blue dotted line) connected with an azide group (from the TAMRA-N3 or biotin-N3) by a copper-catalyzed azide-alkyne cycloaddition. (C) The molecular structures of TAMRA-N3 and biotin-N3. […] After separation of SDS-PAGE, label-BE-targeted proteins were visualized by in-gel fluorescence scanning. The three fluorescent bands in lane 3 (indicated by red triangles) were cut out and pooled and then analyzed by LC-MS/MS. […] The brighter band in lane 3 (indicated by red triangle) was then cut out and analyzed by LC-MS/MS. […]\nTarget protein competition experiments between BE and label-BE were performed as described previously ([51], [52]). […] The bands with changes in fluorescence brightness were then cut off and analyzed by LC-MS/MS; for labeling label-BE with biotin-N3, protein solutions were enriched with streptavidin-conjugated beads. […]"}}, "data": [{"compound": "O=c1cc(-c2ccccc2)oc2cc(O)c(O)c(O)c12", "note": "[BE, Baicalein]", "values": [{"measurement": "antifungal activity (spot assay)", "setting": "C. albicans SC5314; 64 μg/mL BE, solid YPD medium (20 mg/mL glucose)", "value": "had antifungal activity"}, {"measurement": "antifungal activity (spot assay)", "setting": "C. albicans SC5314; 64 μg/mL BE, solid YPG medium (2% glycerol)", "value": "not in solid YPG medium"}, {"measurement": "antifungal activity (spot assay)", "setting": "C. albicans SC5314; 128 μg/mL BE, solid YPD medium", "value": "potent antifungal activity"}, {"measurement": "growth of C. albicans (spot assay)", "setting": "C. albicans SC5314; 128 μg/mL BE, solid YPG medium", "value": "could still grow"}, {"measurement": "competition with label-BE for the CaEno1 band (in-gel fluorescence)", "setting": "[1]", "value": "remarkably reduce the fluorescent brightness"}]}]}
